Consider 3 compounds from patent US12721845B2, “Therapeutic or prophylactic agent for cachexia accompanied by ghrelin resistance” (Toray Industries, Inc., priority 2021, dated 2026).

Counter-ions that a name gives are not always drawn.

In assay [1] the test system is tumor-bearing mouse model (non-small cell lung cancer model accompanied by ghrelin resistance). The assay can be described thus: Example 1: food intake and body weight in tumor-bearing mouse model (A549 cells transplanted into nude mice). It counts as in vivo. The settings on record: for body weight after 5-day administration / cumulative food intake in the period of administration: vs distilled water group. As to the method:
Using tumor-bearing model animals where adenocarcinomic human alveolar basal epithelial cells, A549 cells, were transplanted into nude mice, examination was performed about drug efficacy of Compound 1 on the food intake and the body weight.
Subculture of A549 cells was performed using a 10% FBS-containing RPMI1640 culture medium. In evaluation of drug efficacy, 6-week-old female BALB/C slc/nu/nu mice (Japan SLC, Inc.) were purchased, and were used after habituated for one week. Tumor-bearing model animals were prepared as follows. Specifically, 2.5×10^7 cells of A549 cells were transplanted to the right abdominal region of each mouse by subdermal administration. On Day 43 from the cell transplantation, the mice were divided into groups to have an equal averaged tumor volume.
The effects of a variety of compounds on food intake and body weight were examined as follows. Specifically, for 5 days from Day 44 to Day 48 from the cell transplantation, the compounds were orally administered daily, and the food intake and the body weight were measured at the same time. The doses of Compound 1 were 0.25 mg/kg (6 animals), 0.5 mg/kg (6 animals), and 1 mg/kg (6 animals). To verify that the model animals are in a ghrelin resistant state, anamorelin hydrochloride (MedChemExpress) was used at 30 mg/kg (6 animals). The food intake was calculated by subtracting the weight of feed on the previous day of measurement from the weight of feed on the day of measurement.
In FIG. 1, the ordinate represents the cumulative food intake in the period of administration of the compounds (from the start of administration to the day next to the final day of administration). In FIG. 2, the ordinate represents the percentage of changes in body weight on Day 6 from the start of administration of the compounds (the day next to the final day of administration) (after 5-day administration) (relative to the body weight measured immediately before the first administration of the compound designated as 100%). In the abscissas of FIGS. 1 and 2, “Distilled water” represents distilled water-treated group, “Compound 1 0.25” represents Compound 1-treated group at 0.25 mg/kg, “Compound 1 0.5” represents Compound 1-treated group at 0.5 mg/kg, “Compound 1 1” represents Compound 1-treated group at 1 mg/kg, and “Anamorelin” represents anamorelin hydrochloride-treated group at 30 mg/kg. In FIGS. 1 and 2, the mark “*” represents a statistical significance (*: P<0.05) in comparison with distilled water-treated group (Dunnett's multiple test).

For assay [2] the test system is unchanged. The assay can be described thus: Example 2: food intake and body weight in tumor-bearing mouse model (A549 cells transplanted into nude mice). Format: in vivo. As to the method: Using tumor-bearing model animals where adenocarcinoma human alveolar basal epithelial cells, A549 cells, were transplanted into nude mice, examination was performed about drug efficacy of Compounds 1 and 2 on the food intake and the body weight.
Subculture of A549 cells was performed using a 10% FBS-containing RPMI1640 culture medium. In evaluation of drug efficacy, 7-week old female BALB/C slc/nu/nu mice (Japan SLC, Inc.) were purchased, and were used after habituated for one week. Tumor-bearing model animals were prepared as follows. Specifically, 2.5×10^7 cells of A549 cells were transplanted to the right abdominal region of each mouse by subdermal administration. On Day 43 from the cell transplantation, the mice were divided into groups to have an equal averaged tumor volume.
The effects of a variety of compounds on food intake and body weight were examined as follows. Specifically, for 5 days from Day 44 to Day 48 from the cell plantation, Compound 2 was intraperitoneally administered daily, Compound 1 and anamorelin hydrochloride were orally administered daily, and the amount of feed and the body weight were measured at the same time. Compound 2 was used at 1 mg/kg (9 animals), and Compound 1 was used at 0.25 mg/kg (9 animals), which is the lowest dose to exert drug efficacy. To verify that the model animals are in a ghrelin resistant state, anamorelin hydrochloride was used at 30 mg/kg (9 animals) herein. The food intake was calculated by subtracting the weight of feed on the previous day of measurement from the weight of feed on the day of measurement.
In FIG. 3, the ordinate represents the cumulative food intake in the period of administration of the compounds (from the start of administration to the day next to the final day of administration). In FIG. 4, the ordinate represents the percentage of changes in body weight on Day 6 from the start of administration of the compounds (the day next to the final day of administration) (after 5-day administration) (relative to the body weight measured immediately before the first administration of the compound designated as 100%). In the abscissas of FIGS. 3 and 4, “Normal saline” represents a group treated intraperitoneally with normal saline, “Compound 2” represents a group treated intraperitoneally with Compound 2 at 1 mg/kg, “Compound 1” represents a group treated orally with Compound 1 at 0.25 mg/kg, and “Aanamorelin” represents a group treated orally with anamorelin hydrochloride at 30 mg/kg. In FIGS. 3 and 4, the mark “*” represents a statistical significance (*: P<0.05) compared to the group treated with normal saline (Dunnett's multiple test).

For assay [3], the system named is model of non-small cell lung cancer to which A549 cells have been transplanted subcutaneously. The conditions noted are these: cited from earlier work.
The next assay concerns normal animal. The settings on record: anamorelin hydrochloride 30 mg/kg; cited from earlier work.
Setting [4] is: Compound 1 0.25 mg/kg oral daily for 5 days, compared with Compound 2 1 mg/kg i.p.
Setting [5] is: Compound 2 1 mg/kg intraperitoneal daily for 5 days, vs normal saline group, Dunnett P<0.05.
The mark [6] stands for this setting: anamorelin hydrochloride 30 mg/kg oral daily for 5 days.

Consider `CN(C(=O)/C=C/c1ccoc1)[C@@H]1CC[C@@]2(O)[C@H]3Cc4ccc(O)c5c4[C@@]2(CCN3CC2CC2)[C@H]1O5` [Compound 1, (−)-17-(cyclopropylmethyl)-3,14β-dihydroxy-4,5α-epoxy-6β-[N-methyl-trans-3-(3-furyl)acrylamide]morphinan hydrochloride], for which the “body weight after 5-day administration” value in assay [1] (Compound 1 0.25 mg/kg oral daily for 5 days) is “tendency of an increase in body weight”; in assay [1] (Compound 1 0.5 mg/kg oral daily for 5 days, Dunnett P<0.05) it was “statistically significant increasing effect in body weight”; in assay [1] (Compound 1 1 mg/kg oral daily for 5 days, Dunnett P<0.05), “statistically significant increasing effect in body weight”; in assay [2] (setting [4]), “increasing effect in body weight higher than those exhibited by Compound 2”. Moreover, the “cumulative food intake in the period of administration” value (“cumulative food intake in the period” below) in assay [1] (Compound 1 0.25, 0.5 and 1 mg/kg oral daily for 5 days (Day 44-48 from transplantation), Dunnett P<0.05) was “statistically significant increasing effect in food intake”; in assay [2] (setting [4]), “increasing effect in food intake and the increasing effect in body weight higher than those exhibited by Compound 2”. In addition, in assay [1] (oral, tumor-bearing mouse model), the “lowest dose to exert drug efficacy” value was determined as 0.25 mg/kg.

Regarding `CC(C)C[C@@H](NC(=O)[C@@H](Cc1ccccc1)NC(=O)[C@H](N)Cc1ccccc1)C(=O)N[C@H](CCCCN)C(=O)N1CCC(N)(C(=O)O)CC1` [Compound 2, 4-amino-1-[(2R)-6-amino-2-[(2R)-2-[(2R)-2-[(2R)-2-amino-3-phenylpropanamide]-3-phenylpropanamide]-4-methylpentanamide]hexanoyl]piperidine-4-carboxylic acid], in assay [2] (setting [5]), the “body weight after 5-day administration” value is given as “statistically significant increasing effect in body weight” and the “cumulative food intake in the period” value is “statistically significant increasing effect in food intake”.

Regarding `CN(C)N(C)C(=O)[C@@]1(Cc2ccccc2)CCCN(C(=O)[C@@H](Cc2c[nH]c3ccccc23)NC(=O)C(C)(C)N)C1` [anamorelin hydrochloride, reference compound], the body weight result is “increase in body weight” in assay [3] (anamorelin hydrochloride 30 mg/kg, A549 cells transplanted subcutaneously in the abdominal region) and “increase in body weight” in the assay on normal animal. Moreover, the “therapeutic effects on cachexia” value in assay [3] (anamorelin hydrochloride administered on Day 23 from cell transplantation) is reported as “achieved therapeutic effects on cachexia”; in assay [2] (anamorelin hydrochloride 30 mg/kg oral, administered from Day 44 after cell transplantation (Examples 1 and 2)), “no therapeutic effects were observed on cachexia”. Also, in assay [1] (setting [6]), the “body weight after 5-day administration” value is “any statistically significant increasing effect in food intake or increasing effect in body weight was not observed”. The “cumulative food intake in the period” value in assay [1] (setting [6]) is “any statistically significant increasing effect in food intake or increasing effect in body weight was not observed”.
